From PMC7954794, “Protein context shapes the specificity of SH3 domain-mediated interactions in vivo” (Nature Communications, 2021)

What was measured:
NCK2 = NCK2 phase separation in vitro, 60 mM NaCl, Coomassie quantification (Fig. 5E); parameters: species or system mouse; settings: Amount/Total
Protocol: E. coli BL21 (DE3) cells were transformed with mNCK2 constructs in the pET-30b vector and grown overnight at 37 °C in LB with 100 µg/ml kanamycin. The next day, cultures were expanded in LB with kanamycin until they reached their exponential growth phase (OD600 of around 1.0). Protein production was then induced by the addition of 1 mM IPTG (Bio Basic) and incubation at 16 °C overnight with agitation. Cultures were pelleted with a centrifugation step (3200g at 4 °C, 30 min), washed with ice-cold PBS, and pellets were kept at −80 °C. Bacteria were thawed in GST buffer (20 mM Tris-HCl pH 7.5, 0.5 M NaCl, 1 mM EDTA, and 1 mM DTT (Millipore Sigma)) with cOmplete protease inhibitors (Millipore Sigma) and disrupted with sonication. Lysates were then centrifuged at 20,000g for 20 min at 4 °C and the supernatant loaded to a GSTrap FF 1 mL column (GE Healthcare). Following a washing step with 10 mL GST–Buffer, the GST-Tagged proteins were eluted with 15 mM GSH (Bio-basic) and cleaved in a solution using purified recombinant His-tagged TEV protease (Thermo Fisher Scientific). Tag-free NCK2 proteins were further purified using a 1 ml HisTrap FF column (GE Healthcare) to remove free His-tagged GST and TEV as well as remaining impurities. The purified proteins were concentrated with Amicon 10 K filters (Millipore Sigma) and their concentration assessed using Coomassie and BCA assays (Thermo Fisher Scientific).
Purified NCK2 proteins were diluted in GST buffer to identical concentrations. At 500 mM NaCl present in this buffer, all NCK2 constructs were completely soluble. Phase transition was initiated by dilution in imidazole buffer (10 mM imidazole (Bio Basic) pH 7.0, 1 mM DTT, 1 mM EGTA (Millipore Sigma), 1 mM MgCl2, 2.5% Glycerol (Bioshop Canada), 3% Dextran (Millipore Sigma)) containing various amount of NaCl so that the final concentration of NaCl would correspond to those in Supplementary Fig. 7B. For all the other experiments, the phase transition of NCK2 proteins was assessed at 60 mM NaCl. NCK2 at 8 μg/μL (40 μg in 5 μL) was added to 35 μL imidazole buffer in a plastic 96-well plate that had first been pretreated with a 0.2% bovine serum albumin solution to reduce nonspecific binding. The plate assay was then incubated overnight (24 h) at 4 °C before imaging. Phase-contrast images of each well were acquired using a Zeiss Axio Vert.A1 inverted microscope with an LD A-Plan 40×/0.55 Ph1 objective (Zeiss) in Zen Blue software (version 2.3.69.1000). After imaging, the soluble protein fraction (supernatant) was recovered for sodium dodecyl sulfate polyacrylamide gel electrophoresis analysis. Protein droplets attached at the bottom of the well (pellet) were washed once with imidazole buffer with 60 mM NaCl and then solubilized in Laemmli buffer. The pellets to supernatant fractions were used to quantify phase transition at 60 mM NaCl (7 replicates) via Coomassie protein quantification. The involvement of weak hydrophobic interactions in NCK2 driven phase transition was assessed using 1,6-Hexanediol (Millipore Sigma) at 60 mM NaCl. Imidazole buffer containing 0%, 1%, 5%, and 10% 1,6-Hexanediol was first prepared and phase transition was initiated and analyzed as described above. Finally, the competition of SH3-2 dependent homotypic NCK2 interaction with an SH3-2 binding peptide was assessed in the presence of 5, 15, 45, 90, 150, or 300 μM PAK1 peptide ([…]) in imidazole buffer with 60 mM NaCl. The impact of PAK1 peptide addition was observed via phase contrast microscopy as described above.

BEM1-1 = assay: DHFR-PCA on solid medium, bait BEM1-1 (Fig. 1B); format: cell-based, Saccharomyces cerevisiae; settings: bait BEM1-1, label = prey; for medrep (log2 median colony size normalized to plate background, PCA score): 2-8 replicates; for Ratio (SH3-deleted/WT medrep): only significant differences showed, PPIs completely lost have a ratio of 0.1 and the gained PPIs 2.5
Description: (§1) Supplement 41467_2021_21873_MOESM8_ESM.xlsx, sheet "Fig1B" | column: medsize; medrep; Ratio; Score

[1] = test system: 575 putative partners (preys) of 22 WT SH3-containing proteins; assay: DHFR-PCA on solid medium, WT and SH3-deleted baits (Fig. 1B); format: cell-based, Saccharomyces cerevisiae; parameters: key to Score: 0: SH3-independent; 1: SH3-dependent PPIs; 2: SH3-inhibited PPIs; settings: for medrep (log2 median colony size normalized to plate background, PCA score): label = prey; for Ratio (SH3-deleted/WT medrep): only significant differences shown, PPIs completely lost have a ratio of 0.1, gained PPIs 2.5
Description: To assess the requirement of SH3 domains for PPIs in vivo, we first measured binary interactions between 22 WT SH3-containing proteins (Supplementary Fig. 1A) as baits and 575 putative partners from their interconnected signaling networks using the dihydrofolate reductase protein–fragment complementation assay (DHFR-PCA) in the budding yeast Saccharomyces cerevisiae. About 33% (202/607) of the PPIs detected were described before, mostly by direct methods (Supplementary Fig. 1B, C)[11]. We repeated the experiments with baits in which the SH3s were individually replaced with a flexible linker by genome editing (SH3 domain deletion/stuffing, Fig. 1A). The stuffer DNA sequence ([…]) codes for a small flexible poly-Gly with Ser peptide ([…]) that is inspired by previous experiments[12],[13]. About a third of the SH3-containing protein interactome is qualitatively or quantitatively SH3-dependent (171 PPIs out of 607, Fig. 1B and Supplementary Fig. 1B, C). We validated the vast majority of the quantitative changes in low-throughput experiments and excluded that this is simply due to changes in protein abundance in most cases (Supplementary Fig. 1D–G). SH3-binding motifs[14] are more frequent in the SH3-dependent PPI partners when compared to sequences from random proteins, SH3-independent PPI partners or PPI partners that are stronger or gained following SH3 deletions (p values = 1.5 × 10^−17, 0.0038 and 2.1 × 10^−08, respectively; Mann–Whitney test, one-tailed, Fig. 1C). The changes we measure are therefore enriched for PPIs that depend on the direct interactions of the domains with the PPI partners.
The complete list of strains, primers, and gRNAs used in this study can be found in Supplementary Tables 1–3. All constructed yeast strains were validated by polymerase chain reaction (PCR) and confirmed by Sanger sequencing of the locus of interest. Bait strains for the DHFR-PCA experiments were constructed as follows. The genes of interest were fused at their genomic 3′ end by replacing the stop codon with a linker ([…]), the DHFR F[1,2] followed by a smaller linker (GGGGS), a 1× FLAG tag ([…]) and the NATMX4 resistance cassette via homologous recombination (all amplified from pAG25-DHFR[1,2]-linker-FLAG). The set of 615 prey strains (DHFR F[3] fusions in the BY4742 background) were retrieved from the Yeast Protein Interactome Collection[43] with the exception of 73 that were reconstructed (Supplementary Tables 1 and 2). Knockout strains were taken from the yeast knockout collection except for ABP1, BEM1, BZZ1, and SLA1, which were reconstructed by replacing the ORFs with the NATMX4 resistance cassette by homologous recombination in the BY4741 background.
Yeast SH3 domain genomic sequences were replaced by CRISPR–Cas9 genome editing. Each SH3 domain (as defined by the SMART database V8.0 except for Ysc84 SH3 (as defined by PROSITE), see Source Data for all SH3 sequences and Supplementary Table 1 for primers used) was specifically targeted by one gRNA[46]. Yeast competent cells were co-transformed with a pCAS plasmid (Addgene plasmid 60847[47]) expressing both the gRNA of interest and Streptococcus pyogenes Cas9[46] and a donor DNA sequence (stuffer) with 60 bp homology arms surrounding the SH3 DNA sequence. The Stuffer DNA was either PCR amplified or digested from a plasmid. The stuffer DNA sequence ([…]) codes for a small flexible linker ([…]) inspired by protein linkers used in structural biology[12],[13]. This type of linker is frequently used for fusing proteins without affecting the structure of the linked proteins.
The overall DHFR-PCA pipeline is based on Tarassov et al.[43] and the procedures have also been published as a visualized protocol. The screens were performed with robotically manipulated pin tools (BM5-SC1, S&P Robotics Inc.). First, the preys were cherry-picked from 96-well plates to omnitrays in a 384 format on YPD + HPH solid media. […]

ABP1 = assay: DHFR-PCA on solid medium, bait ABP1 (Fig. 1B); format: cell-based, Saccharomyces cerevisiae; settings: bait ABP1, label = prey; 2-4 replicates
Description: as §1

BBC1 = assay: DHFR-PCA on solid medium, bait BBC1 (Fig. 1B); format: cell-based, Saccharomyces cerevisiae; settings: bait BBC1, label = prey; for medrep (log2 median colony size normalized to plate background, PCA score): 2-4 replicates; for Ratio (SH3-deleted/WT medrep): only significant differences showed, PPIs completely lost have a ratio of 0.1 and the gained PPIs 2.5
Description: as §1

[2] = bait SLA1-2, DHFR-PCA, Replicates 4 (2 for YCR009C, YDR388W)
[3] = bait SLA1-3, DHFR-PCA, Replicates 4 (2 for YCR009C, YDR388W, YIL033C)

Substance | medrep (log2 median colony size normalized to plate background, PCA score) [1, 2] | Score ([1]; bait SLA1-2, label = prey) | Ratio (SH3-deleted/WT medrep) ([1]; bait SLA1-2, label = prey) | medrep (log2 median colony size normalized to plate background, PCA score) [1, 3] | Score ([1]; bait SLA1-3, label = prey) | medrep (log2 median colony size normalized to plate background, PCA score) (ABP1) | medrep (log2 median colony size normalized to plate background, PCA score) (BBC1) | Ratio (SH3-deleted/WT medrep) (BBC1) | further results
NCK2 | – | – | – | – | – | – | – | – | Ratio (NCK2; Phase Pellet, replicate 1): 0.2548; Ratio (NCK2; Phase Pellet, replicate 2): 0.3742; Ratio (NCK2; Phase Pellet, replicate 3): 0.4878; Ratio (NCK2; Phase Pellet, replicate 4): 0.2596; Ratio (NCK2; Phase Pellet, replicate 5): 0.2564; Ratio (NCK2; Phase Pellet, replicate 6): 0.2454; Ratio (NCK2; Phase Pellet, replicate 7): 0.2712; Ratio (NCK2; Phase Soluble, replicate 1): 0.7452; Ratio (NCK2; Phase Soluble, replicate 2): 0.6258; Ratio (NCK2; Phase Soluble, replicate 3): 0.5122; Ratio (NCK2; Phase Soluble, replicate 4): 0.7404; Ratio (NCK2; Phase Soluble, replicate 5): 0.7436; Ratio (NCK2; Phase Soluble, replicate 6): 0.7546; Ratio (NCK2; Phase Soluble, replicate 7): 0.7288
YDR265W | – | – | – | – | – | – | – | – | medrep (log2 median colony size normalized to plate background, PCA score) (BEM1-1): 2.347; Ratio (SH3-deleted/WT medrep) (BEM1-1): 2.5
YDR388W (ETVTALYDYQAQAAGDLSFPAGAVIEIVQRTPDVNEWWTGRYNGQQGVFPGNYVQLNK) | 1.88 | 1 | 0.1 | 1.88 | 0 | 4.711 | 1.395 | 0.1 | –
YER166W | 2.422 | 1 | 0.1 | 2.422 | 0 | 3.035 | – | – | –
YFR024C-A (PKAVALYSFAGEESGDLPFRKGDVITILKKSDSQNDWWTGRVNGREGIFPANYVELV) | – | – | – | 4.788 | 0 | 5.192 | 1.926 | 0.1 | –
YHR016C (SATPTAVALYNFAGEQPGDLAFKKGDVITILKKSDSQNDWWTGRTNGKEGIFPANYVRVS) | 1.614 | 1 | 0.4201 | 3.842 | 0 | 4.9581 | – | – | –
YIL062C | – | – | – | 4.44 | 0 | 5.265 | 4.09 | – | –
YJL210W | – | – | – | – | – | – | – | – | medrep (log2 median colony size normalized to plate background, PCA score) (BEM1-1): 1.8146; Ratio (SH3-deleted/WT medrep) (BEM1-1): 2.5
YLR370C | 2.335 | 1 | 0.5146 | 4.537 | 0 | 5.077 | 4.024 | – | –
YMR026C | – | – | – | – | – | – | – | – | medrep (log2 median colony size normalized to plate background, PCA score) (BEM1-1): 3.625; Ratio (SH3-deleted/WT medrep) (BEM1-1): 2.5
YNL138W | 2.731 | 1 | 0.1 | 2.731 | 0 | 5.358 | 2.102 | 0.1 | –
YOR181W | 2.241 | 1 | 0.4606 | 4.865 | 0 | 4.4673 | 1.945 | 0.4732 | –
YPR184W | 2.1199 | 1 | 0.1 | 2.1199 | 0 | 3.5 | – | – | –
